Measurements from publication PMC10683023, “Targeting Glial Cells by Organic Anion-Transporting Polypeptide 1C1 (OATP1C1)-Utilizing L-Thyroxine-Derived Prodrugs” (Journal of Medicinal Chemistry, 2023).

What was measured:
[1] = test system: human U-87MG glioma cells; assay: Concentration-dependent cellular uptake into human U-87MG glioma cells; format: cell-based; settings: for Km / Vmax, cellular uptake, U-87MG: 5–400 μM, 30 min, 37 °C
Protocol: U-87MG (ATCC, HTB-14, unknown origin) was purchased from Lonza (Basel, Switzerland). The cells were cultured in standard conditions (37 °C, 5% CO2) using Dulbecco’s modified Eagle’s medium (DMEM) supplemented with L-glutamine (2.0 mM), heat-inactivated fetal bovine serum (FBS) (10%), penicillin (50 U/mL), and streptomycin (50 μg/mL). U-87MG cells (passages 8–25) were seeded at a density of 1 × 10^5 cells/well onto 24-well plates and used for the uptake experiments 1 day after seeding. All of the studies were carried out as three biological replicates from the same cell passage.
(§1) After removal of the culture medium, U-87MG human glioma cells and mouse primary astrocytes were carefully washed with prewarmed Hank’s balanced salt solution (HBSS) containing 125.0 mM NaCl (or choline chloride in Na^+ free conditions), 4.8 mM KCl, 1.2 mM MgSO4, 1.2 mM KH2PO4, 1.3 mM CaCl2, 5.6 mM glucose, and 25.0 mM 4-(2-hydroxyethyl)piperazine-1-ethanesulfonic acid (HEPES) with the pH adjusted to either 7.4 or pH 8.5 with 1 M NaOH (or KOH in sodium-free conditions). In the experiments at lower pH (4.5–6.5), 25.0 mM HEPES was replaced by 2-(N-morpholino) ethanesulfonic acid (MES), and the pH was adjusted to 4.5, 5.5, and 6.5 by 1.0 M NaOH. Preincubation was done with 500 μL of prewarmed HBSS at 37 °C for 10 min before adding the substrate for the uptake experiments. The functionality of OATP1C1 in human glioma U-87MG cells was studied with a known substrate (L-thyroxine, T4) and of oatp1a4, 1a5, and 1a6 in mouse primary astrocytes with [6,7-^3H(N)]-estrone-3-sulfate (ES) by incubating the uptake solution (250 μL in HBSS) consisting of 5–400 μM of the substrate at 37 °C for 30 min. After incubation, the uptake was stopped by adding 500 μL of ice-cold HBSS, and the cells were washed two times with ice-cold HBSS (2 × 500 μL). The cells were then lysed with 500 μL of 0.1 M NaOH (60 min), the lysate was neutralized, and the protein was precipitated with acidic acetonitrile (ACN with 4.8% formic acid). The supernatants were analyzed by the high-performance liquid chromatography (HPLC) methods described below (T4) or by using a liquid scintillation counter (MicroBeta2 counter, PerkinElmer, Waltham, MA) (ES). The concentrations of T4 and ES were calculated from the spiked standard curve and normalized with the protein concentrations. The protein concentrations on each plate were determined as a mean of three samples by Bio-Rad Protein Assay, based on the Bradford dye-binding method, using bovine serum albumin (BSA) as a standard protein and measuring the absorbance (595 nm) by a multiplate reader (EnVision, PerkinElmer, Inc., Waltham, MA). The OATP-mediated uptake was confirmed by changing the pH of the uptake buffer in the absence of sodium ions, and in the case of OATP1C1 in human U-87MG cells, the uptake of T4 (100 μM) was studied in the presence of competing OATP1C1-ligands, diclofenac and flufenamic acid (100 μM), and in the case of oatp1a4/1a5/1a6 in mouse primary astrocytes, the uptake of ES (100 μM) was studied in the presence of competing OATO1A2-ligand, naringin (100 μM).
Cellular uptake of prodrugs 1–8 was studied as described for L-thyroxine above by adding compounds at a concentration of 5–400 μM in prewarmed HBSS buffer (250 μL) on the cell layer and incubating at 37 °C for 30 min (uptake was linear with all compounds up to 30 min). Subsequently, the cells were washed three times with ice-cold HBSS and lysed with 500 μL of 0.1 M NaOH (60 min). The lysate was neutralized; the proteins were precipitated with acidic ACN (containing 4.8% formic acid), and the supernatants were analyzed by the (HPLC) methods described below. The concentrations of each prodrug normalized to protein concentration were calculated from the standard curve prepared by spiking known concentrations of compounds into ACN-precipitated cell lysate. […]

mouse primary astrocytes = assay: Concentration-dependent cellular uptake into mouse primary astrocytes; format: cell-based; settings: 5–400 μM, 30 min, 37 °C
Protocol: The mouse primary astrocytes were isolated from neonatal pups (P0-2) of wild-type mice (C57BL/6JOlaHsd) as previously described, in compliance with the European Commission Directive 2010/63/EU and approved by the Institutional Animal Care and Use Committee of the University of Eastern Finland (Animal Usage Plan numbers: EKS-006-2019).[37] Neonatal pups were decapitated, and their brains were collected in an ice-cold HBSS buffer. After tissue dissociation and washing, cells were plated on poly-L-lysine-coated flasks and cultured in DMEM supplemented with FBS, L-glutamine, and penicillin/streptomycin (50 μg/mL) for 24 h. Debris and dead cells were removed by DPBS rinsing. After 7 days, microglial cells were removed, and the remaining astrocytic monolayer was collected by trypsinization using 0.05% trypsin-ethylenediaminetetraacetic acid (EDTA) (Gibco), pelleted, and stored at −80 °C for subsequent analysis. For the cell uptake experiments, the astrocytes were seeded on 24-well plates with a density of 10^4 cells/well 3 days before the experiments.
as §1
Cellular uptake of prodrugs 1–8 was studied as described for L-thyroxine above by adding compounds at a concentration of 5–400 μM in prewarmed HBSS buffer (250 μL) on the cell layer and incubating at 37 °C for 30 min (uptake was linear with all compounds up to 30 min). Subsequently, the cells were washed three times with ice-cold HBSS and lysed with 500 μL of 0.1 M NaOH (60 min). […]

Row | SMILES | Km [1] [µM] | Vmax, cellular uptake, U-87MG [1] [nmol/min/mg] | Vmax, cellular uptake, U-87MG ([1]; listed as PD2) [nmol/min/mg] | Km (mouse primary astrocytes) [µM] | Vmax, cellular uptake, astrocytes (mouse primary astrocytes) [nmol/min/mg] | Transport capacity relative to prodrug 3 ([1]; at 200 μM concentration, U-87MG cells) | Affinity relative to corresponding DIT prodrug 3 ([1]; from Km values, U-87MG cells) [times] | Vmax, cellular uptake, U-87MG ([1]; listed as PD5) [nmol/min/mg] | Vmax, cellular uptake, U-87MG ([1]; listed as PD6) [nmol/min/mg]
1 | CC(C(=O)Oc1c(I)cc(Oc2c(I)cc(C[C@H](N)C(=O)O)cc2I)cc1I)c1cccc(C(=O)c2ccccc2)c1 (mixture of isomers) [Prodrug 2, (2S)-2-Amino-3-(4-(4-((2-(3-benzoylphenyl)propanoyl)oxy)-3,5-diiodophenoxy)-3,5-diiodophenyl)propanoic acid] | 118 ± 27 | 13 | 13.0 ± 1.3 | 123 ± 21 | 5.5 ± 0.4 |  |  |  | 
2 | CC(C(=O)Oc1c(I)cc(C[C@H](N)C(=O)O)cc1I)c1ccc(-c2ccccc2)c(F)c1 (mixture of isomers) [Prodrug 7, (2S)-2-Amino-3-(4-((2-(2-fluoro-[1,1′-biphenyl]-4-yl)propanoyl)oxy)-3,5-diiodophenyl)propanoic acid] | 381 ± 73 | 19.8 ± 2.3 |  | 360 ± 61 | 10.3 ± 1.1 |  |  |  | 
3 | CC(C(=O)Oc1c(I)cc(Oc2c(I)cc(C[C@H](N)C(=O)O)cc2I)cc1I)c1ccc(-c2ccccc2)c(F)c1 (mixture of isomers) [Prodrug 8, (2S)-2-Amino-3-(4-(4-((2-(2-fluoro-[1,1′-biphenyl]-4-yl)propanoyl)oxy)-3,5-diiodophenoxy)-3,5-diiodophenyl)propanoic acid] | 221 ± 48 | 21.5 ± 2.4 |  | 58 ± 20 | 3.0 ± 0.4 |  |  |  | 
4 | N[C@@H](Cc1cc(I)c(OC(=O)c2ccccc2O)c(I)c1)C(=O)O [Prodrug 3, (S)-2-Amino-3-(4-((2-hydroxybenzoyl)oxy)-3,5-diiodophenyl)propanoic acid] | 539 ± 97 | 9.9 ± 1.2 |  | 685 ± 97 | 13.0 ± 1.3 |  |  |  | 
5 | N[C@@H](Cc1cc(I)c(Oc2cc(I)c(OC(=O)c3ccccc3O)c(I)c2)c(I)c1)C(=O)O [Prodrug 4, (S)-2-Amino-3-(4-(4-((2-hydroxybenzoyl)oxy)-3,5-diiodophenoxy)-3,5-diiodophenyl)propanoic acid] | 106 ± 32 | 9.0 ± 1.1 |  | 86 ± 32 | 5.5 ± 0.8 | ca. 3.5 times | 5 |  | 
6 | COc1ccc2cc([C@H](C)C(=O)Oc3c(I)cc(C[C@H](N)C(=O)O)cc3I)ccc2c1 [Prodrug 5, (S)-2-Amino-3-(3,5-diiodo-4-(((S)-2-(6-methoxynaphthalen-2-yl)propanoyl)oxy)phenyl)propanoic acid] | 138 ± 79 | 9.0 |  |  |  |  |  | 9.0 ± 3.7 | 
7 | COc1ccc2cc([C@H](C)C(=O)Oc3c(I)cc(Oc4c(I)cc(C[C@H](N)C(=O)O)cc4I)cc3I)ccc2c1 [Prodrug 6, (S)-2-Amino-3-(4-(3,5-diiodo-4-(((S)-2-(6-methoxynaphthalen-2-yl)propanoyl)oxy)phenoxy)-3,5-diiodophenyl)propanoic acid] | 138 ± 36 | 13.5 |  |  |  |  |  |  | 13.5 ± 1.6
